Consider four compounds from ChEMBL document CHEMBL1151608, “Unusual cytotoxicities of 5-(acylethynyl)-1-(2-hydroxyethoxy)methyluracils” (Bioorg Med Chem Lett, 1996).

SMILES strings stand for the structures.

Format in all cases: functional, cell-based
One test relates to HT-29. Briefly: In vitro cytotoxic effect of compound was measured against HT-29 tumor cells. Particulars: Homo sapiens.
The next test deals with L1210. Briefly: In vitro cytotoxic effect of compound was measured against L1210/0 tumor cells in mouse.
The subject of another test is CCRF-CEM. Nature of the test: In vitro cytotoxic effect of compound was measured against CCRF-CEM human lymphoblastoid cells.

In the case of `Cc1cccc(C(=O)C#Cc2cn(COCCO)c(=O)[nH]c2=O)c1`, the results for the half-maximal inhibitory concentration (IC50) with HT-29, in the test with L1210 and in the test with CCRF-CEM were 14 µM, 0.7 µM and 0.6 µM, respectively.

Regarding `Cc1ccccc1C(=O)C#Cc1cn(COCCO)c(=O)[nH]c1=O`, the concentration for half-maximal inhibition (IC50) (as a rule, the concentration needed to halve the response being measured) amounted to 25 µM in the test on HT-29, 2.2 µM with L1210 and 0.9 µM with CCRF-CEM.

As to `COc1ccc(C(=O)C#Cc2cn(COCCO)c(=O)[nH]c2=O)cc1`, the 50% inhibitory concentration (IC50) in the test with HT-29 stood at 20 µM; in the test on L1210 it was 1.5 µM; in the test with CCRF-CEM it was 1.6 µM.

Turning to `Cc1ccc(C(=O)C#Cc2cn(COCCO)c(=O)[nH]c2=O)cc1`, the figures for the half-inhibitory concentration (IC50) in the test on HT-29, in the test with L1210 and with CCRF-CEM were 8 µM, 0.9 µM and 0.7 µM, respectively.
